Experimental data taken from patent US20240207254A1, “METHODS FOR TITRATING MITAPIVAT” (Agios Pharmaceuticals, Inc., priority 2021, published 2024).

Experiment: phase 2 study: sudden withdrawal or missed doses of mitapivat, acute hemolysis
Format: in vivo, human
Procedure: Clinical studies have also shown that acute hemolysis with subsequent anemia can occur following abrupt interruption or discontinuation of mitapivat. […] For example, in a phase 2 study with 300 mg of mitapivat dosed twice daily, 3.8% of subjects experienced hemolysis upon sudden withdrawal of mitapivat, including 1 serious adverse event of acute hemolysis. […] Although the exact risk factors which make someone susceptible to acute hemolysis cannot be determined, it appears that the rapid loss of hemoglobin is an issue for these cases. Given the uncertainty as to who is likely to experience signs or symptoms of acute hemolysis (or subsequent anemia), it is important to develop means for mitigating such events.

O=C(c1ccc(NS(=O)(=O)c2cccc3cccnc23)cc1)N1CCN(CC2CC2)CC1 [mitapivat, N-(4-(4-(cyclopropylmethyl)piperazine-1-carbonyl)phenyl)quinoline-8-sulfonamide]
events indicative of acute hemolysis after missed doses (patients who missed only a few doses later in their treatment course): did not experience events indicative of acute hemolysis | subjects who experienced hemolysis upon sudden withdrawal of mitapivat (phase 2 study, 300 mg mitapivat dosed twice daily, sudden withdrawal): 3.8% | serious adverse event of acute hemolysis (number of events) (phase 2 study, 300 mg twice daily, sudden withdrawal, included in the 3.8%): 1
